This assay relates to hamsters. In words: Ovulation enhancement study in hamsters (ova count after 4 days of subcutaneous dosing). Particulars: ova counted on fifth day, untreated control mean 11.3. Type of assay: in vivo. On the procedure:
In one study carried out with hamsters utilizing H--Thr--Arg--Lys--Arg--OH diacetate, each of six animals was injected subcutaneously at various dosage levels as indicated in the Table for each of the four days of the estrous cycle. On the fifth day, the animals were sacrificed, the left and right ovaries and oviducts of each animal collected, sectioned, stained, and the ova counted. The figures given in the second column are the mean numbers of ova for six animals at each dosage level. In a control group of 20 animals which were not treated with the ovulation enhancing compound, the mean number of ova counted under similar conditions was 11.3.

Residues, ends and D or L forms follow the SMILES beside them.

For the molecule `C[C@@H](O)[C@H](N)C(=O)N[C@@H](CCCNC(=N)N)C(=O)N[C@@H](CCCCN)C(=O)N[C@@H](CCCNC(=N)N)C(=O)O` [H--Thr--Arg--Lys--Arg--OH diacetate, H--Thr--Arg--Lys--Arg--OH] (H-TRKR-OH), the “Number of OVA (mean number of ova for six animals)” value (from here on “Number of OVA”) (0.10 μgm/100 gm/day on each of the four days of the estrous cycle) turned out to be 13.7, the “Number of OVA” value (0.30 μgm/100 gm/day on each of the four days of the estrous cycle) was 14.1, the “Number of OVA” value (3.00 μgm/100 gm/day on each of the four days of the estrous cycle) is listed as 15.5 and the “Number of OVA” value (30.00 μgm/100 gm/day on each of the four days of the estrous cycle) came to 15.6.

These data come from patent US4181717A, “Ovulation enhancing peptides” (Research Corporation, priority 1978, dated 1980).
